Earlier results on 1 compound are cited in patent US20140171495A1, “STABLE PHARMACEUTICAL FORMULATION OF CABAZITAXEL” (Yung Shin Pharm.Ind. Co., Ltd., priority 2012, published 2014).

For `CO[C@H]1C(=O)[C@]2(C)[C@@H](OC)C[C@H]3OC[C@@]3(OC(C)=O)[C@H]2[C@H](OC(=O)c2ccccc2)[C@]2(O)C[C@H](OC(=O)[C@H](O)[C@@H](NC(=O)OC(C)(C)C)c3ccccc3)C(C)=C1C2(C)C` [Cabazitaxel, (2α,5β,7β,10β,13α)-4-acetoxy-13-({(2R,3S)-3[(tertbutoxycarbonyl)amino]-2-hydroxy-3-phenylpropanoyl}oxy)-1-hydroxy-7,10-dimethoxy-9-oxo-5,20-epoxytax-11-en-2-yl benzoate-propan-2-one(1:1)], under “alcohol”, the solubility in alcohol entry is listed as “soluble”. Further, the solubility in water entry (water) is on record as “practically insoluble”.
